Key:
[1] = IBDU solubility without accelerator, 2 bag STEPvert LT diversion pill in water or brine; assay type: physicochemical; conditions: 45 kg/m3 loading of IBDU in water or brine
Excerpt: Operations: • When milling in an underpressured well (i.e. hydrostatic pressure is greater than bottom hole pressure), or when there are indications of possible or actual lost circulation. • Add two bags of 100 Mesh IBDU such as STEPvert LT™ available from STEP Energy Services Ltd. to fluid in a displacement tank (45 kg/m^3), engage agitation paddle to maximum RPM (if paddle is not spinning fast enough to mix fluid, increase paddle speed) to ensure mixing. Continue mixing or, as noted above, displace while IBDU is added. • To avoid the IBDU settling out prior to arriving downhole, adjust the fluid if necessary to increase the carrying capacity of the fluid such that solid IBDU is able to remain suspended for the period of time it takes to get downhole. This may be achieved by pump rate and/or addition of viscosifiers. Thus, to better suspend solids: • A gelling agent is added: For example liquid gel hydroxyethyl cellulose 5 L/m^3 (2 kg/m^3 if dry gel) is added to the displacement tank with a target hydration time of 3 minutes; and/or • Slowly pour IBDU into the mixing tub while displacing to ensure no product settles out. • Add a degradation accelerator if needed. Consider Table 1 where IBDU solubility is summarized with and without a citric acid accelerator based on 45 kg/m3 loading of IBDU in water or brine: […]

[2] = IBDU dissolution time with citric acid accelerator (Accelerator HT); assay type: physicochemical; conditions: 2 bag pill, 45 kg/m3 IBDU in water or brine
Excerpt: Operations: • When milling in an underpressured well (i.e. hydrostatic pressure is greater than bottom hole pressure), or when there are indications of possible or actual lost circulation. • Add two bags of 100 Mesh IBDU such as STEPvert LT™ available from STEP Energy Services Ltd. to fluid in a displacement tank (45 kg/m^3), engage agitation paddle to maximum RPM (if paddle is not spinning fast enough to mix fluid, increase paddle speed) to ensure mixing. Continue mixing or, as noted above, displace while IBDU is added. • To avoid the IBDU settling out prior to arriving downhole, adjust the fluid if necessary to increase the carrying capacity of the fluid such that solid IBDU is able to remain suspended for the period of time it takes to get downhole. This may be achieved by pump rate and/or addition of viscosifiers. Thus, to better suspend solids: • A gelling agent is added: For example liquid gel hydroxyethyl cellulose 5 L/m^3 (2 kg/m^3 if dry gel) is added to the displacement tank with a target hydration time of 3 minutes; and/or • Slowly pour IBDU into the mixing tub while displacing to ensure no product settles out. • Add a degradation accelerator if needed. Consider Table 1 where IBDU solubility is summarized with and without a citric acid accelerator based on 45 kg/m3 loading of IBDU in water or brine:
• Generally if the formation temperature is less than 90° C., use a degradation accelerator, such as a resin coated citric acid such as Accelerator HT™ available from STEP Energy Services Ltd. The citric acid reduces pH in order to reduce degradation time of the IBDU. The resin coating ensures that the citric acid substantially will not begin to act until it reaches formation temperature. The resin breaks down to expose the acid and the acid then reduces pH and expedites degradation. • The pill of the IBDU, possibly including degradation accelerator, is launched. If a twin pump is employed, pump only through one fluid end and isolate the idle side. This ensures diverter only enters one side of plumbing. This is an operational efficiency, where only one fluid end is exposed to diverter in case it collects in large quantities and holds a valve and seat open. By always keeping one side “clean” (no solids) operational risks are mitigated. • Maintain a minimum rate of at least about 0.2 m^3/min or possibly about 0.4 m^3/min through the single fluid end (higher rate is better to aid in carrying solids). If fluid is comingled with gas such as nitrogen, lower rates may be used. […] This ensures the fluid end has been properly flushed. • Track volume from when pill enters the coil to when it is expected to reach open formation. Record the time that each pill reaches formation/exits coil BHA on treatment report (include surface iron in volume calculation). In case a large pressure event occurs when the pill exits the downhole pump, only one pill is to be inside coil at any given time.

[3] = 50° C., Accelerator HT Loading 5 kg
[4] = 60° C., Accelerator HT Loading 4 kg
[5] = 70° C., Accelerator HT Loading 2 kg
[6] = 80° C., Accelerator HT Loading 1 kg
[7] = 90° C., Accelerator HT Loading 0 kg

Structure (SMILES): CC(C)C(NC(N)=O)NC(N)=O [STEPvert LT, isobutylidene diurea]
- No Accelerator Solubility, % 24 Hours ([1]; 50° C.): 14%
- No Accelerator Solubility, % 48 Hours ([1]; 50° C.): 20%
- No Accelerator Solubility, % 96 Hours ([1]; 50° C.): 32%
- No Accelerator Solubility, % 24 Hours ([1]; 60° C.): 18%
- No Accelerator Solubility, % 48 Hours ([1]; 60° C.): 24%
- No Accelerator Solubility, % 96 Hours ([1]; 60° C.): 35%
- No Accelerator Solubility, % 24 Hours ([1]; 70° C.): 32%
- No Accelerator Solubility, % 48 Hours ([1]; 70° C.): 35%
- No Accelerator Solubility, % 96 Hours ([1]; 70° C.): 51%
- No Accelerator Solubility, % 24 Hours ([1]; 80° C.): 51%
- No Accelerator Solubility, % 48 Hours ([1]; 80° C.): 96%
- No Accelerator Solubility, % 96 Hours ([1]; 80° C.): 98%
- No Accelerator Solubility, % 24 Hours ([1]; 90° C.): 89%
- No Accelerator Solubility, % 48 Hours ([1]; 90° C.): 96%
- No Accelerator Solubility, % 96 Hours ([1]; 90° C.): 98%
- 50% Dissolution Time [2, 3]: 1.5 days
- 100% Dissolution Time [2, 3]: 5 days
- 50% Dissolution Time [2, 4]: 1 days
- 100% Dissolution Time [2, 4]: 3 days
- 50% Dissolution Time [2, 5]: 1 days
- 100% Dissolution Time [2, 5]: 2 days
- 50% Dissolution Time [2, 6]: 1 days
- 100% Dissolution Time [2, 6]: 2 days
- 50% Dissolution Time [2, 7]: 0.33 days
- 100% Dissolution Time [2, 7]: 1 days
